Measured values: EP4755885A1 (Shanghai Hansoh Biomedical Co., Ltd., priority 2023, dated 2025)
Where two headings read alike, the source gives them in different places.

Legend:
human GLP-1 receptor = molecular target: T1, human GLP-1 receptor (Homo sapiens, UniProt P43220); assay: cAMP production in cell line stably transformed with human GLP1 receptor, 30 min co-incubation (HTRF); type: cell-based; details: CHO-K1/GLP-1R/CRE-luc cells, stimulation for 0.5 h
T1 construct: expressed in transfected cells
T1 sequence (P43220 24-463): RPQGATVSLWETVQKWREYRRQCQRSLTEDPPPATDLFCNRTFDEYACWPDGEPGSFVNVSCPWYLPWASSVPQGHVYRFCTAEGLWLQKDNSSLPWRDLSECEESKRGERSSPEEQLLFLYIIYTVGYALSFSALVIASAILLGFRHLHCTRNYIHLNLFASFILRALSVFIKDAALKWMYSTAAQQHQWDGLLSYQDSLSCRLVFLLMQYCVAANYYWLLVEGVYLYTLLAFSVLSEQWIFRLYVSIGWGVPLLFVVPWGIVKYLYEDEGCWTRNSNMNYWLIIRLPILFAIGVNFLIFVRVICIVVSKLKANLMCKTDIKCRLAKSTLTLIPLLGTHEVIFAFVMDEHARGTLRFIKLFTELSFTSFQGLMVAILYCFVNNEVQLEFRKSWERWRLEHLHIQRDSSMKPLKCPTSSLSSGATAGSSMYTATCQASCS
Method: The purpose of this assay example is to test the ability of the compound to activate the human GLP-1 receptor on cell surface. The EC50 for stimulated cAMP production after activation characterizes the ability of the compound to activate the human GLP-1 receptor.
In this experiment, the compound and cells were co-incubated for 30 min.
Frozen cell line CHO-K1/GLP-1R/CRE-luc stably transformed with human GLP1 receptor was removed from a liquid nitrogen tank, and was placed in a 37°C water bath for rapid thawing. The cells were resuspended in DMEM/F12 medium, and after centrifugation, were washed once. The cells were resuspended in an experimental buffer, i.e., DMEM/F12 medium containing 0.1% casein. After centrifugation, cell density was adjusted using the experimental buffer. The cells were plated onto a 384-well plate at a density of 1500 cells/5 µL/well. Then, each well was added with 2.5 µL of IBMX working solution prepared with the buffer, the final concentration of IBMX being 0.5 mM, and 2.5 µL of a serially diluted compound sample (starting from […], 3-fold dilution, 12 concentrations). The plate was centrifuged at 1000 rpm for 1 min, and was stood for incubation at 37°C for 0.5 h. Determination was performed using the Cisbio cAMP - Gs Dynamic kit. cAMP-d2 and anti-cAMP-Eu3+-Cryptate were diluted 18-fold and 20-fold respectively with cAMP Lysis & Detection Buffer, and were respectively mixed homogeneously. Each well was added with 5 µL of diluted cAMP-d2 solution, and the plate was centrifuged at 1000 rpm for 1 min, and shaken for 30 seconds for homogeneous mixing. Then, each well was added with 5 µL of diluted anti-cAMP-Eu3+-Cryptate solution, and the plate was centrifuged at 1000 rpm for 1 min and was incubated in the dark at room temperature for 1 h. HTRF signals were read using the Biotek Synergy H1 microplate reader, the excitation wavelength being 320 nm and the emission wavelengths being 620 nm and 665 nm.
The signal-to-signal ratio was calculated (665 nm/620 nm * 10,000). Nonlinear fitting between the signal-to-signal ratio and the sample concentration was performed in GraphPad Prism 10 using a four-parameter equation to obtain the EC50 value.

[1] = Pharmacokinetic evaluation in beagles, oral administration; type: in vivo; details: dog, po, p.o. 2 mg/kg, plasma; for Cmax: read-out: Cmax; for MRT inf: read-out: MRT 0-∞; for Tmax: read-out: tmax
In short: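 Male beagles (3) fasted overnight received 2 mg/kg orally as a 0.4 mg/mL solution in 10% PEG400/10% PG/80% glycine buffer, pH 9.0-9.5. Plasma (EDTA-K2) sampled predose and 0.25-24 h; acetonitrile precipitation, then LC/MS/MS quantification.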

[2] = Pharmacokinetic evaluation in Macaca fascicularis monkeys, oral administration; type: in vivo; details: cynomolgus monkey, p.o. 5 mg/kg, plasma; for MRT inf: read-out: MRT 0-∞
Method: Macaca fascicularis monkeys were used as test animals to study the pharmacokinetic behavior of the compound of the present invention, administered orally at a dose of 5 mg/kg, in Macaca fascicularis monkeys (plasma).
Macaca fascicularis monkeys, 3 per group, male.
Preparation of drug for oral administration: 10%PEG400/10%PG/80% glycine buffer (100 mM glycine, 64 Mm NaOH, […]) buffer.
Single PK: The compound of the present invention was weighed into a 100 mL glass bottle, and the solution was added. The pH was first adjusted with 1 M NaOH until the compound dissolves to obtain a clear solution, and then the pH was readjusted to pH 9.0-9.5 with 1 M HCl. Sonication was performed for 10 min to obtain a colorless clear solution having a concentration of 1 mg/mL.
Three Macaca fascicularis monkeys, male, respectively administered p.o. after fasting overnight, at a dose of 5 mg/kg and in an administration volume of 5 mL/kg.
Blood collection: 0.3 mL of blood was collected from the forelimb vein of the Macaca fascicularis monkeys before administration and at 0.25, 0.5, 1, 2, 4, 6, 8, and 24 h after administration. The blood samples were placed in EDTA-K2 anticoagulant tubes and centrifuged at 6000 rpm at 4°C for 6 min to separate plasma, which was stored at -80°C. The Macaca fascicularis monkeys were fed 4 h after administration.
• 1) 40 µL of a plasma sample was added with 160 µL of acetonitrile for precipitation, and after mixing, the mixture was centrifuged at 3500 × g for 5 to 20 min. • 2) The supernatant solution after treatment was taken for LC/MS/MS analysis of the concentration of the test compound. The LC/MS/MS analysis instrument was AB Sciex API 4000 Qtrap.
• Liquid phase condition: Shimadzu LC-20AD pump • Chromatographic column: Agilent ZORBAX XDB-C18 (50×2.1 mm, 3.5 µm) Mobile phase: Solution A was 0.1% formic acid aqueous solution, and Solution B was acetonitrile • Flow rate: 0.4 mL/min • Elution time: 0-4.0 min, the eluent was as follows: […]

Question: With `Cc1cc(-n2nc3c(c2-n2ccn(-c4ccc5c(cnn5C5CC5)c4F)c2=O)[C@H](C)N(C(=O)c2cc4cc([C@H]5CCOC(C)(C)C5)ccc4n2[C@@]2(c4noc(=O)[nH]4)C[C@@H]2COC2CC2)CC3)cc(C)c1F` [Example 67] as the compound, how does the EC50 (human GLP-1 receptor) read?
Answer: The EC50 was 1.4 nM.

Question: What about the AUC(0-inf) [1] of the same compound?
Answer: Its AUC(0-inf) is 11800 ng·h/mL.

Question: And the AUC(0-t) at 24 h [1]?
Answer: Its AUC(0-t) at 24 h is 11500 ng·h/mL.

Question: And the half-life [1]?
Answer: The half-life was 4.2 h.

Question: What about the Cmax [1] of the same compound?
Answer: Its Cmax is 2110 ng/mL.

Question: What about the MRT inf [1] of the same compound?
Answer: Its MRT inf is 5.7 h.

Question: What about the Tmax [1] of the same compound?
Answer: The Tmax was 1.5 h.

Question: For `C#C[C@H]1C[C@]1(c1noc(=O)[nH]1)n1c(C(=O)N2CCc3nn(-c4cc(C)c(F)c(C)c4)c(-n4ccn(-c5ccc6c(cnn6C6CC6)c5F)c4=O)c3[C@@H]2C)cc2cc([C@H]3CCOC(C)(C)C3)ccc21` [Example 143], which AUC(0-inf) ([1]; male, beagle) is on record?
Answer: Its AUC(0-inf) is 17800 ng·h/mL.

Question: And the half-life ([1]; male, beagle)?
Answer: Its half-life is 3.3 h.

Question: And the AUC(0-t) ([1]; male, beagle, read-out: AUC 0-t)?
Answer: The AUC(0-t) was 13800 ng·h/mL.

Question: And the Cmax ([1]; male, beagle)?
Answer: Its Cmax is 2040 ng/mL.

Question: What about the MRT inf ([1]; male, beagle) of the same compound?
Answer: Its MRT inf is 4.8 h.

Question: And the Tmax ([1]; male, beagle)?
Answer: The Tmax was 2.7 h.

Question: And the AUC(0-inf) ([2]; male)?
Answer: Its AUC(0-inf) is 26200 ng·h/mL.

Question: And the AUC(0-t) ([2]; male)?
Answer: Its AUC(0-t) is 26000 ng·h/mL.

Question: What about the Cmax ([2]; male) of the same compound?
Answer: Its Cmax is 4040 ng/mL.

Question: And the Tmax ([2]; male)?
Answer: Its Tmax is 2.7 h.

Question: What about the half-life ([2]; male) of the same compound?
Answer: Its half-life is 3.2 h.

Question: What about the MRT inf ([2]; male) of the same compound?
Answer: Its MRT inf is 5.1 h.

Question: With `CC#C[C@H]1C[C@]1(c1noc(=O)[nH]1)n1c(C(=O)N2CCc3nn(-c4cc(C)c(F)c(C)c4)c(-n4ccn(-c5ccc6c(cnn6C6CC6)c5F)c4=O)c3[C@@H]2C)cc2cc([C@H]3CCOC(C)(C)C3)ccc21` [Example 144, 3-((1S,2R)-1-(2-((S)-3-(3-(1-cyclopropyl-4-fluoro-1H-indazole-5-yl)-2-carbonyl-2,3-dihydro-1H-imidazole-1-yl)-2-(4-fluoro-3,5-dimethylphenyl)-4-methyl-4,5,6,7-tetrahydro-2H-pyrazolo[4,3-c]pyridin-5-carbonyl)-5-((S)-2,2-dimethyltetrahydro-2H-pyrano-4-yl)-1H-indole-1-yl)-2-(propyl-1-alkynyl-1-yl)cyclopropyl)-1,2,4-oxadiazol-5(4H)-one] as the compound, how does the EC50 (human GLP-1 receptor; read-out: EC50) read?
Answer: Its EC50 is 1 nM.

Question: And the AUC(0-inf) [1]?
Answer: Its AUC(0-inf) is 16600 ng·h/mL.

Question: What about the AUC(0-t) at 24 h [1] of the same compound?
Answer: Its AUC(0-t) at 24 h is 15900 ng·h/mL.

Question: What about the half-life [1] of the same compound?
Answer: Its half-life is 5.8 h.

Question: And the Cmax [1]?
Answer: Its Cmax is 2470 ng/mL.

Question: And the MRT inf [1]?
Answer: The MRT inf was 6.5 h.

Question: And the Tmax [1]?
Answer: Its Tmax is 1.7 h.

Question: For `[2H]C([2H])([2H])n1nc2c3c(c(-n4ccn(-c5c6c(nn5-c5cc(C)c(F)c(C)c5)CCN(C(=O)c5cc7cc([C@H]8CCOC(C)(C)C8)ccc7n5[C@@]5(c7noc(=O)[nH]7)C[C@@H]5C)[C@H]6C)c4=O)ccc31)OCCC2` [Example 282, 3-((1S,2S)-1-(5-((S)-2,2-dimethyltetrahydro-2H-pyran-4-yl)-2-((S)-2-(4-fluoro-3,5-dimethylphenyl)-4-methyl-3-(3-(2-(methyl-d3)-2,7,8,9-tetrahydrooxaheptano[4,3,2-cd]indazol-5-yl)-2-carbonyl-2,3-dihydro-1H-imidazol-1-yl)-4,5,6,7-tetrahydro-2H-pyrazolo[4,3-c]pyridine-5-carbonyl)-1H-indol-1-yl)-2-methylcyclopropyl)-1,2,4-oxadiazol-5(4H)-one], which AUC(0-inf) [1] is on record?
Answer: The AUC(0-inf) was 10800 ng·h/mL.

Question: What about the AUC(0-t) at 24 h [1] of the same compound?
Answer: Its AUC(0-t) at 24 h is 9130 ng·h/mL.

Question: What about the half-life [1] of the same compound?
Answer: The half-life was 8.5 h.

Question: What about the Cmax [1] of the same compound?
Answer: Its Cmax is 858 ng/mL.

Question: What about the MRT inf [1] of the same compound?
Answer: Its MRT inf is 12.1 h.

Question: What about the Tmax [1] of the same compound?
Answer: Its Tmax is 2 h.

Question: And the AUC(0-inf) [2]?
Answer: Its AUC(0-inf) is 17000 ng·h/mL.

Question: What about the AUC(0-t) [2] of the same compound?
Answer: Its AUC(0-t) is 7560 ng·h/mL.

Question: And the Cmax [2]?
Answer: Its Cmax is 570 ng/mL.

Question: What about the Tmax [2] of the same compound?
Answer: The Tmax was 4 h.

Question: What about the half-life [2] of the same compound?
Answer: Its half-life is 47.6 h.

Question: And the MRT inf [2]?
Answer: The MRT inf was 68.9 h.
